Test results from the NIST ThermoML archive (doi:10.1021/je400423u).

Experiment: xn = mol fraction of the nth substance listed
Conditions: 101 kPa, Liquid; for viscosity: Falling or rolling sphere viscometry; for mass density: Vibrating tube method

CC(C)CO [2-methyl-1-propanol] + CC(C)(C)O
Conditions | mass density [kg/m3] | viscosity [mPa·s]
308.15 K, x1 = 0.1038 | 773.016 | 2.723
308.15 K, x1 = 0.2004 | 775.321 | 2.802
308.15 K, x1 = 0.3131 | 777.898 | 2.84
308.15 K, x1 = 0.3971 | 779.742 | 2.837
308.15 K, x1 = 0.4999 | 781.894 | 2.812
308.15 K, x1 = 0.6002 | 783.901 | 2.773
308.15 K, x1 = 0.6999 | 785.765 | 2.723
308.15 K, x1 = 0.7993 | 787.468 | 2.667
308.15 K, x1 = 0.8941 | 788.855 | 2.607
308.15 K, x1 = 1 | 790.12 | 2.382
313.15 K, x1 = 0.1038 | 767.906 | 2.19
313.15 K, x1 = 0.2004 | 770.357 | 2.263
313.15 K, x1 = 0.3131 | 773.062 | 2.312
313.15 K, x1 = 0.3971 | 774.993 | 2.327
313.15 K, x1 = 0.4999 | 777.281 | 2.329
313.15 K, x1 = 0.6002 | 779.435 | 2.317
313.15 K, x1 = 0.6999 | 781.451 | 2.294
313.15 K, x1 = 0.7993 | 783.274 | 2.264
313.15 K, x1 = 0.8941 | 784.79 | 2.229
313.15 K, x1 = 1 | 786.12 | 2.116
318.15 K, x1 = 0.1038 | 762.689 | 1.786
318.15 K, x1 = 0.2004 | 765.271 | 1.852
318.15 K, x1 = 0.3131 | 768.112 | 1.904
318.15 K, x1 = 0.3971 | 770.15 | 1.93
318.15 K, x1 = 0.4999 | 772.578 | 1.949
318.15 K, x1 = 0.6002 | 774.881 | 1.955
318.15 K, x1 = 0.6999 | 777.066 | 1.954
318.15 K, x1 = 0.7993 | 779.045 | 1.94
318.15 K, x1 = 0.8941 | 780.694 | 1.919
318.15 K, x1 = 1 | 782.06 | 1.861
323.15 K, x1 = 0.1038 | 757.428 | 1.479
323.15 K, x1 = 0.2004 | 760.154 | 1.536
323.15 K, x1 = 0.3131 | 763.135 | 1.59
323.15 K, x1 = 0.3971 | 765.278 | 1.619
323.15 K, x1 = 0.4999 | 767.832 | 1.643
323.15 K, x1 = 0.6002 | 770.282 | 1.658
323.15 K, x1 = 0.6999 | 772.615 | 1.664
323.15 K, x1 = 0.7993 | 774.761 | 1.662
323.15 K, x1 = 0.8941 | 776.498 | 1.655
323.15 K, x1 = 1 | 777.93 | 1.602
328.15 K, x1 = 0.1038 | 752.049 | 1.243
328.15 K, x1 = 0.2004 | 754.907 | 1.293
328.15 K, x1 = 0.3131 | 758.027 | 1.342
328.15 K, x1 = 0.3971 | 760.272 | 1.372
328.15 K, x1 = 0.4999 | 762.978 | 1.4
328.15 K, x1 = 0.6002 | 765.582 | 1.42
328.15 K, x1 = 0.6999 | 768.076 | 1.433
328.15 K, x1 = 0.7993 | 770.382 | 1.438
328.15 K, x1 = 0.8941 | 772.239 | 1.439
328.15 K, x1 = 1 | 773.73 | –
333.15 K, x1 = 0.1038 | 746.582 | 1.057
333.15 K, x1 = 0.2004 | 749.576 | 1.099
333.15 K, x1 = 0.3131 | 752.825 | 1.145
333.15 K, x1 = 0.3971 | 755.183 | 1.173
333.15 K, x1 = 0.4999 | 758.038 | 1.202
333.15 K, x1 = 0.6002 | 760.796 | 1.224
333.15 K, x1 = 0.6999 | 763.457 | 1.241
333.15 K, x1 = 0.7993 | 765.918 | 1.251
333.15 K, x1 = 0.8941 | 767.911 | 1.257
333.15 K, x1 = 1 | 769.44 | –
338.15 K, x1 = 0.1038 | 741.045 | 0.9089
338.15 K, x1 = 0.2004 | 744.179 | 0.9461
338.15 K, x1 = 0.3131 | 747.58 | 0.9857
338.15 K, x1 = 0.3971 | 750.026 | 1.013
338.15 K, x1 = 0.4999 | 753.002 | 1.042
338.15 K, x1 = 0.6002 | 755.897 | 1.064
338.15 K, x1 = 0.6999 | 758.701 | 1.081
338.15 K, x1 = 0.7993 | 761.298 | 1.094
338.15 K, x1 = 0.8941 | 763.412 | 1.105
338.15 K, x1 = 1 | 765.07 | –
343.15 K, x1 = 0.1038 | 735.409 | 0.7889
343.15 K, x1 = 0.2004 | 738.697 | 0.8213
343.15 K, x1 = 0.3131 | 742.239 | 0.8569
343.15 K, x1 = 0.3971 | 744.793 | 0.8812
343.15 K, x1 = 0.4999 | 747.895 | 0.9085
343.15 K, x1 = 0.6002 | 750.924 | 0.9302
343.15 K, x1 = 0.6999 | 753.891 | 0.9494
343.15 K, x1 = 0.7993 | 756.647 | 0.9642
343.15 K, x1 = 0.8941 | 758.895 | 0.9753
343.15 K, x1 = 1 | 760.61 | –
